Patent US20200022944A1, “COMPOSITION OR MEDICAL FOOD TO EXTRACT THE DIETARY IRON AND BOOST ITS BIOAVAILABILITY FOR IRON DEFICIENCY (ID) AND ID-ANEMIA” (TIXUPHARMA DI CARLO GHISALBERTI, priority 2017, published 2020)

Key:
[1] = Cell-free in vitro competition test for Fe(III) versus antinutrients; assay type: physicochemical; details: for recovery of Fe as 1:3 Fe-ligand complex in competition with non-cathecolic polyphenols (avg.): average; for recovery of Fe as 1:3 Fe-ligand complex in competition with non-cathecolic polyphenols (avg.) / recovery of Fe as 1:3 Fe-ligand complex in competition with oxalates / recovery of Fe as 1:3 Fe-ligand complex in competition with phosphate: vs citrate ref standard of 100% recovery; for recovery of Fe as 1:3 Fe-ligand complex in competition with oxalates / recovery of Fe as 1:3 Fe-ligand complex in competition with phosphate: sequential pH 6/2.5/6.5, CH2Cl2 extract read at 405 nm; for iron competition versus phytate and catecholic polyphenols: without enzymatic co-treatment
Method: The method evaluates the competitive affinity for Fe(III) of maltol/ethyl maltol versus antinutrients, i.e. the iron sequestering agents occurring in food, in a 3-step method which adopts a sequential pH 6/2.5/6.5 mimic the pHs occurring in stomach at fast, during gastro digestion and in duodenum, respectively. Stock solution at 10 mM conc. were prepared by dissolving in water the following reagents: (a) antinutrient series: EDTA (EDTA=negative control), ellagic acid (ELL), gallic acid (GAL), hesperidin (HES), naringin (NAR), monosodium oxalate (OXA), disodium phosphate (PHO), quercetin (QUE), rutin (RUT), tannic acid (TAN), phytic acid sodium salt (PHY); wherein the cathecolic polyphenols (CPP) are presented as pooled (b) maltol (MAL) and ethyl maltol (EMAL); […] In brief, in 15-ml tubes were combined 100 μl of 10 mM FAC (1 μmol); 1 ml of 10 mM CaCl2 (10 μmol); 1 ml of 10 mM 3-hydroxy-4-pyrone (10 μmol); 1 ml of each antinutrient at 10 mM (10 μmol); and 2 ml of water to 5 ml final volume. No antinutrients were introduced in the positive control. Tubes were oscillated at 30 rpm for 2.5 hours, of which: 1 hour at initial pH 6-6.5; 1 hour at pH 2-2.5 (by 50 μl 1N HCl), and final 30 min. at pH around 6.5 (by 50 μl 1N NaOH). The tubes were then added with 2 ml di CH2Cl2 and shacked for 2 min. […] Residues were taken up with 2 ml water and read at 405 nm. Absorbance calibration: r=0.30 and linear correlation within the 40-4 μM range (r2=1; […] on 0-intercept).

[2] = In vitro digestion model: extraction of dietary non-heme iron from vegetal foods; details: for yield of extracted iron from vegetal food: canned soybean, red beans, peas, 1 ml 10 mM, versus water control; for surplus of yields of gastroactive (GA) model over gastropassive (GP) condition: with versus without classic digestive enzymes
Method: The method assessed the extraction of dietary non-heme iron by maltol or ethyl maltol in simulated digestion of vegetal foods, with/without digestive enzymes. In brief, samples (10 g) of vegetable foods, viz. canned soybean, red beans and peas were smashed in mortar with 5 ml water. Specimen were combined in 50 ml tubes supplemented with HCl solution (pH 2.5) of mix of classic digestive enzymes consisting in: 2 mg pepsin 1:3000; 0.5 mg lipase 200 FIP/g; and bile enzymes, i.e. 2.5 mg bovine bile extract; 1.25 pancreatin extract 4:1 in “gastroactive” model (“GA”). A parallel test named “gastropassive” use non enzymes. Tube were added with 1 ml maltol/ethyl maltol 10 mM, or water in control, and underwent 2 hours of slow motion (60 o/min) at controlled temperature. The pH was finally adjusted to 6-7 (1N NaOH) and the tubes remained on oscillation for further 30 min. The digests were collected, filtered at 100 μm mesh, diluted and read at 405 nm. Results expressed as % recovery of Fe calculated against a calibration curve) are plotted in FIG. 3.

[3] = tested on: rodents conducted to anemia by iron starvation; experiment: Murine model of anemic therapy (iron-deficient diet); assay type: in vivo, female Wistar rats; details: normalized-iron vegetal diet comprising the substance after ID diet, compared to both controls
Method: This in vivo murine study sized the capacity of maltol/ethyl maltol compounded into food to enhance iron uptake in rodents conducted to anemia by iron starvation. For that purpose, 6-wk old female Wistar rats were fed for 28 days a iron-deficient diet (Fe:12 mg/kg), labeled IDD1. A control group received standard diet (Fe:45 mg/kg) (Ctrl1) along the entire experiment. In the second stage, IDD1 rats were randomized for 26 days test diets conceived as follows: the M3 and EM3 groups received cookies with 3% of maltol or 3% ethyl maltol, respectively. The M/EMO group was fed with cookies without maltol/ethyl maltol; while the IDD2 group was maintained at Fe-deficient diet. […] Cookies were produced from corn flour and vegetal fat, and backed at 180° C. for 15 minM, whereas in M3 and EM3 groups a portion (3%) of corn flour was replaced with maltol and ethyl maltol. Animals were kept in room with 12 h light/dark cycle, temperature of 24° C. […], and drinking water ad libitum. […] Serum iron was measured at 623 nm, haemoglobin content (Hb) total iron binding capacity (TIBC), erythrocytes, haemoglobin (Hb), hematocrit (Ht), mean corpuscular volume (MCV), mean corpuscular haemoglobin (MCH), and MCH concentration (MCHC) assessed according to Regula et al. Ann Agric Environ Med 2016;23(2):310-4. Iron transferrin saturation (TSAT) was calculated by the formula: TSAT=(Fe/TIBC)×[…].

[4] = pH 6
Method: (§1) (a) maltol (MAL) and ethyl maltol (EMAL) at 10 mM concentration;
(§2) (c) iron sources: FAC (Fe^III) and ferrous sulfate (FS, Fe^III) at 1:10 eq/eq with respect to AA, at 1:20 eq/eq with respect to CA, and at 1:5 eq/eq with respect to MAL.
(§3) The final Fe concentration was fixed 200 μM with the other molar ratio as listed above, while the solution were then neutralized to pH 6-7.
Total iron was determined by inductively-coupled plasma optical emission spectrometry, where both ICP-OES standards and samples were diluted in 0.5% HNO3 in 0-1000 ppb range. Physical classification of iron was assessed after centrifugation (10,000×g, 5 min.), the supernatant was ultrafiltrated with 3kDa MWCO filter 10,000×g, 10 min. Phase distribution was calculated as: iron microparticulate (total Fe−Fe in supernatant), iron nanoparticulate (Fe ultrafiltrate−Fe in supernatant) and soluble iron (Fe ultrafiltrate/total Fe).

[5] = tested on: inflammatory bowel disease; details: animal model of IBD; Minaiyan et al. 2012; cited from earlier work
Caco-2 cells = experiment: Caco-2 monolayer absorption: ferritin formation; details: 1 h contact at 37° C., 23 h re-incubation; Fe 200 μM
Method: Caco-2 cells cultivated and used at passages 24-50 in culture medium, serum-free MEM, were exposed to test substances in culture medium.
as §1, §2, §3
One hour contact at 37° C. was used for similarity of duodenal contact time. After incubation 1 h the medium was aspirated, cell monolayer washed 3× PBS-EDTA and fresh MEM added. Cells were re-incubated for 23 h to allow ferritin formation, lysed with 400 μl of MPER® lysis buffer, lysate collected, centrifuged for 5′ at 16,000×g, and supernatant collected for analysis. The solutions were filter-sterilized (0.2 μm syringe filter) prior dilution in the culture medium.
Ferritin content of Caco-2 cells was determined by an ELISA kit, results corrected for the baseline values and expressed in relation to total cell protein in ng ferritin/mg cell protein.

SMILES	recovery of Fe as 1:3 Fe-ligand complex in competition with non-cathecolic polyphenols (avg.) [1]	recovery of Fe as 1:3 Fe-ligand complex in competition with oxalates [1]	recovery of Fe as 1:3 Fe-ligand complex in competition with phosphate [1]	iron competition versus phytate and catecholic polyphenols [1]	yield of extracted iron from vegetal food [2]	surplus of yields of gastroactive (GA) model over gastropassive (GP) condition [2]	recovery of iron and hematologic levels [3]	iron solubility / phase distribution [4]	therapeutic dosage (ED50) [5]	ferritin formation in Caco-2 cells (Caco-2 cells)
Cc1occc(=O)c1O [maltol]	95%	89%	98%	limited efficiency	increased the yield of extracted iron from vegetal food	about 10%	faster recovery of iron and hematologic levels	retain the Fe(III) solubility at supplemental levels	140-240 mg/kg bw	produced soluble iron utilized by enteric cells for ferritin synthesis
CCc1occc(=O)c1O [ethyl maltol]	95%	89%	98%	limited efficiency	increased the yield of extracted iron from vegetal food	about 10%	faster recovery of iron and hematologic levels			produced soluble iron utilized by enteric cells for ferritin synthesis
